Structures can show the parent of a compound that is named as a salt.
Tests used:
[1] = humans, cited from earlier work
in vivo [2] = settings: male, Wistar, rat, plasma
Description: A serial blood sampling was performed from each animal. The blood samples were collected at 0.00 (pre-dose), 0.08, 0.25, 0.5, 1, 2, 4, 6, 8, 24 hrs. […] Pharmacokinetic parameters were calculated using the non-compartmental analysis (NCA) module of Phoenix-WinNonlin® software version 6.4.

in vivo [3] = assay: in vivo
Description: A serial blood sampling was performed from each animal. The blood samples were collected at 0.00 (pre-dose), 0.083, 0.25, 0.5, 1, 2, 4, 6, 8, 24 hrs. […] Pharmacokinetic parameters were calculated using the non-compartmental analysis (NCA) module of Phoenix-WinNonlin® software version 6.4.

[4] = intranasal, 0.05, 0.1 and 0.2 mg/kg, rats
in vivo [5] = settings: male, Wistar, rat, inhaled or intranasal, mean ± SD, N=4; for half-life: T½
[6] = endocyclic and exocyclic double bonds to epoxides; tertiary amine to N-oxide; cited from earlier work
[7] = inhaled or intranasal, 0.02 mg/kg
[8] = New Zealand white, rabbit, plasma, inhaled or intranasal, 0.011 mg/kg
[9] = male, Wistar, rat, inhaled or intranasal, 0.4 mg/kg
[10] = male, Wistar, rat, po, 1.05 mg/kg
[11] = male, beagle, dog, plasma, inhaled or intranasal, 0.26 mg/kg
[12] = male, beagle, dog, plasma, po, 0.51 mg/kg
[13] = in vivo, planned 0.2 mg/kg (actual 0.14 mg/kg)
[14] = plasma, planned 0.05 mg/kg (actual 0.03 mg/kg)
[15] = plasma, planned 0.1 mg/kg (actual 0.07 mg/kg)

## CN(C)CCC=C1c2ccccc2C=Cc2ccccc21 [Cyclobenzaprine hydrochloride, cyclobenzaprine hydrochloride]
[1]; study with 14C-labelled drug
  dose excreted in the urine as unchanged drug: about 1%

## CN(C)CCC=C1c2ccccc2C=Cc2ccccc21 [cyclobenzaprine, 3-(5H-Dibenzo[a,d]cyclohepten-5-ylidene)-N,N-dimethyl-1-propanamine]
In vivo [2]; [7]
  AUC(0-inf): 2.59 ng·h/mL
  AUC(0-t): 2.32 ng·h/mL
  Cmax: 2.83 ng/mL
  Tmax: 0.083 h
  half-life: 1.07 h
In vivo [2]; po, 0.885 mg/kg
  AUC(0-inf): 3.26 ng·h/mL
  AUC(0-t): 2.54 ng·h/mL
  Cmax: 1.2 ng/mL
  Tmax: 1 h
  half-life: 2.61 h
In vivo [3]; [8]
  AUC(0-inf): 0.92 ng·h/mL
  AUC(0-t): 0.52 ng·h/mL
  Cmax: 0.56 ng/mL
  MRT inf: 2.43 h
  MRT last: 0.87 h
  Vd/F: 28.6 L/kg
In vivo [3]; intranasal, 0.011 mg/kg
  Cl—F—pred: 199.56 mL/min/kg
  HL—Lambda—z: 1.65 h
In vivo [3]; intranasal, 0.26 mg/kg
  DNAUC (AUC normalized at 1 mg/kg dose): 385.92
In vivo [3]; male, Wistar, rat, inhaled or intranasal
  DNAUC (AUC normalized at 1 mg/kg dose): 130.85
In vivo [3]; [9]
  AUC(0-inf): 52.3 ± 12.8 ng·h/mL
  AUC(0-t): 51.2 ± 12.8 ng·h/mL
  Cmax: 31.3 ± 10.1 ng/mL
  half-life: 2.79 ± 2.35 h
In vivo [3]; male, Wistar, rat, po
  DNAUC (AUC normalized at 1 mg/kg dose): 3.11
In vivo [3]; [10]
  AUC(0-inf): 3.27 ± 0.42 ng·h/mL
  AUC(0-t): 2.98 ± 0.42 ng·h/mL
  Cmax: 1.74 ± 0.95 ng/mL
  half-life: 1.43 ± 0.33 h
In vivo [3]; [11]
  AUC(0-inf): 103 ± 26.2 ng·h/mL
  AUC(0-t): 100 ± 25.9 ng·h/mL
  Cmax: 62.3 ± 13.8 ng/mL
  Tmax: 0.083 h
  half-life: 6.09 ± 2.27 h
In vivo [3]; [12]
  AUC(0-inf): 7.58 ± 5.64 ng·h/mL
  AUC(0-t): 7.03 ± 5.65 ng·h/mL
  Cmax: 1.61 ± 1.21 ng/mL
  Tmax: 1.5 h
  half-life: 2.03 ± 0.64 h
In vivo [3]; oral, 0.442 mg/kg, n=4, rabbits
  Plasma concentrations: below the limit of quantification
In vivo [3]; oral, 0.51 mg/kg
  DNAUC (AUC normalized at 1 mg/kg dose): 13.52
In vivo [3]; rat, inhaled or intranasal, 0.4 mg/kg
  Tmax: 0.083 h
In vivo [3]; rat, po, 1.05 mg/kg
  Tmax: 0.5 (0.25-1.0) Hour
[4]
  Bioavailability versus dose: Dose dependent linear bioavailability
In vivo [5]; [13]
  AUC(0-t): 22.4 ± 10.1 ng·h/mL
  half-life: 2.2 ± 0.3 h
In vivo [5]; in vivo, planned 0.05 mg/kg (actual 0.03 mg/kg)
  half-life: 1.9 ± 0.3 h
In vivo [5]; in vivo, planned 0.1 mg/kg (actual 0.07 mg/kg)
  half-life: 1.6 ± 0.2 h
In vivo [5]; [14]
  AUC(0-t): 4.8 ± 1.4 ng·h/mL
  Cmax: 4.6 ± 1.7 ng/mL
In vivo [5]; [15]
  AUC(0-t): 10.6 ± 3 ng·h/mL
  Cmax: 16.4 ± 11.6 ng/mL
In vivo [5]; plasma, planned 0.2 mg/kg (actual 0.14 mg/kg)
  Cmax: 27.6 ± 26.4 ng/mL
[1]
  plasma clearance: 0.7 L/min
[1]; range 8-37 hours, n=18
  effective half-life: 18 h
[6]
  stability towards oxidation: very unstable
